In the supplement of paper PMC7840683:
Counter-ions that a name gives are not always drawn. ± gives the standard deviation of the averaged measurements.

Test system: HepaRG
Assay: LDH release cytotoxicity, % of total lysis control; higher = more cytotoxic
Conditions: 48 h
Method in brief: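 Single-lot HepaRG cells in collagen I-coated 96-well plates were treated for 48 h in serum-free induction medium containing 0.5% DMSO with test chemicals in eight-point half-log series up to 100 µM. For total lysis, wells received 0.1% Triton X. LDH in 50 µL spent medium was assayed by resorufin fluorescence with CytoTox-ONE. Percent cytotoxicity was normalized to the on-plate vehicle and total lysis controls, with duplicates averaged.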

| Compound | LDH release cytotoxicity (0.03162 µM) [%] | LDH release cytotoxicity (0.1 µM) [%] | LDH release cytotoxicity (0.3162278 µM) [%] | LDH release cytotoxicity (1 µM) [%] | LDH release cytotoxicity (3.16228 µM) [%] | LDH release cytotoxicity (10 µM) [%] | LDH release cytotoxicity (31.6228 µM) [%] | LDH release cytotoxicity (100 µM) [%] | other results |
| --- | --- | --- | --- | --- | --- | --- | --- | --- | --- |
| CC(Cc1ccc(OCC(=O)O)cc1)NCC(O)c1csc(C(F)(F)F)n1 (stereo not given) | -1.76 ± 1.8 | -2.85 ± 0.47 | -1.56 ± 0.35 | -1.12 ± 0.24 | -1.22 ± 0.57 | -0.599 ± 0.77 | 0.839 ± 2.3 | 0.309 ± 0.77 |  |
| O=c1n(CC2CO2)c(=O)n(CC2CO2)c(=O)n1CC1CO1 (stereo not given) [Tris(2,3-epoxypropyl)isocyanurate] | 0.512 ± 0.2 | 0.218 ± 0.46 | 0.217 ± 0.89 | 0.322 ± 0.34 | -0.576 ± 0.33 | 0.383 ± 0.033 | 0.616 ± 0.68 | 1.86 ± 0.47 |  |
| NC(=O)N1c2ccccc2C=Cc2ccccc21 [Carbamazepine] | -0.712 ± 0.62 | -0.993 ± 0.65 | -1.39 ± 0.76 | -0.89 ± 0.085 | -0.514 ± 0.98 | -1.28 ± 0.24 | -1.043 ± 0.0064 | 0.39 ± 0.34 |  |
| COCCO [2-Methoxyethanol] | -2.71 ± 0.16 | -2.42 ± 0.11 | -1.84 ± 0.67 | -2.08 | -2.13 ± 0.46 | -1.562 ± 0.005 | 0.278 ± 0.11 | 2.52 ± 0.4 |  |
| O=C(O)c1cccc(C(=O)O)c1 [1,3-Benzenedicarboxylic acid] | -2.12 ± 0.44 | -1.69 ± 0.34 | -1.63 ± 0.21 | -2.28 ± 0.37 | -2.24 ± 0.28 | -1.69 ± 0.35 | 0.0627 ± 0.62 | 4.89 ± 0.58 |  |
| Clc1cccc(C(Cl)(Cl)Cl)n1 [Nitrapyrin] |  | -0.859 ± 0.33 |  | -2.43 ± 0.29 | -2.02 ± 0.78 | -1.29 ± 0.76 | -1.63 ± 1.3 | 1.2 ± 0.065 | LDH release cytotoxicity (0.031623 µM): -0.0337 ± 1.6%; LDH release cytotoxicity (0.316228 µM): -1.7 ± 1.4% |
| CC(C)(C)c1cc(O)ccc1O [tert-Butylhydroquinone] | -1.59 ± 0.56 | -1.78 ± 0.34 | -2.28 ± 0.47 | -2.78 ± 0.035 | -3.35 ± 0.087 | -3.59 ± 0.29 | -4.19 ± 0.26 | -3.84 ± 0.12 |  |
| O=Cc1ccccc1C=O [1,2-Benzenedicarboxaldehyde] | -1.01 ± 0.34 | -0.945 ± 0.21 | -1.43 ± 0.23 | -0.52 ± 1.3 | -0.768 ± 0.29 | -0.0584 ± 0.28 | 1.36 ± 0.23 | 7.96 ± 1.3 |  |
| Cc1cc(O)ccc1Cl [4-Chloro-3-methylphenol] | -0.825 ± 1.3 | -0.387 ± 0.92 | -0.309 ± 1.2 | -0.443 ± 0.47 | 0.57 ± 0.19 | 0.611 ± 0.11 | 0.786 ± 0.33 | 2.48 ± 0.35 |  |
| C=CN1CCCC1=O [N-Vinyl-2-pyrrolidone] |  |  |  |  |  |  |  |  | LDH release cytotoxicity (0.01581 µM): -1.31 ± 0.34%; LDH release cytotoxicity (0.05 µM): -2.25 ± 0.44%; LDH release cytotoxicity (0.1581139 µM): -2.68 ± 0.3%; LDH release cytotoxicity (0.5 µM): -2.71 ± 0.27%; LDH release cytotoxicity (1.5811388 µM): -2.96 ± 0.54%; LDH release cytotoxicity (5 µM): -2.54 ± 0.67%; LDH release cytotoxicity (15.8114 µM): -1.96 ± 0.93%; LDH release cytotoxicity (50 µM): -0.521 ± 0.9% |
| COc1ccc(C)cc1N [2-Methoxy-5-methylaniline] | -1.46 ± 2 | -3.72 ± 0.18 | -3.46 ± 0.056 | -4.05 ± 0.41 | -3.672 ± 0.029 | -4.54 ± 1.1 | -2.55 ± 0.51 | 14.6 ± 1.5 |  |
| CNC(=O)Oc1cccc2c1OC(C)(C)O2 [Bendiocarb] |  | -1.64 ± 2.2 |  | -1.67 ± 1.8 | -1.78 ± 0.89 | -2.76 ± 2.2 | -2.289 ± 0.017 | -2.6 ± 0.88 | LDH release cytotoxicity (0.031623 µM): -1.26 ± 1.2%; LDH release cytotoxicity (0.316228 µM): -0.794 ± 0.9% |
| CC(C)(C)OOC(=O)c1ccccc1 [tert-Butyl perbenzoate] | -1.33 ± 0.72 | -1.77 ± 0.33 | -1.063 ± 0.0015 | -2.35 ± 0.69 | -1.04 ± 1.1 | -1.63 ± 0.41 | -0.865 ± 0.23 | 0.38 ± 0.12 |  |
| O=C(O)C(Cl)(Cl)Cl [Trichloroacetic acid] | -0.739 ± 0.85 | -2.11 ± 0.056 | -2.765 ± 0.0095 | -2.27 ± 0.54 | -2.74 ± 0.85 | -2.07 ± 0.18 | -1.13 ± 0.15 | 0.84 ± 1.1 |  |
| CCNP(=S)(OC)OC(C)=CC(=O)OC(C)C (stereo not given) [Propetamphos] | 0.305 ± 0.75 | -0.308 ± 0.074 | -1.36 ± 0.17 | -0.42 ± 0.63 | -0.261 ± 0.68 | 0.0856 ± 0.23 | -1.69 ± 0.097 | 2.91 ± 0.14 |  |
| N#CCCCCC#N [Hexanedinitrile] | -0.442 ± 0.26 | -0.226 ± 0.15 | 0.0594 ± 0.38 | -1 ± 1 | -0.445 ± 0.31 | -0.461 ± 0.08 | -0.494 ± 0.13 | 0.294 ± 0.37 |  |
| Nc1c(Cl)c(Cl)nc(C(=O)O)c1Cl [Picloram] |  | -3.68 ± 0.1 |  | -3.09 ± 0.29 | -2.76 ± 0.56 | -2.73 ± 0.51 | -2.11 ± 0.71 | 0.666 ± 0.78 | LDH release cytotoxicity (0.031623 µM): -0.672 ± 0.84%; LDH release cytotoxicity (0.316228 µM): -3.74 ± 1.5% |
| c1ccc(C[n+]2cccc3ccccc32)cc1 [1-Benzylquinolinium chloride] |  |  |  |  |  |  |  |  | LDH release cytotoxicity (0.0327296 µM): -1.88 ± 0.03%; LDH release cytotoxicity (0.1035 µM): -1.6 ± 0.26%; LDH release cytotoxicity (0.327296 µM): -1.47 ± 1.5%; LDH release cytotoxicity (1.035 µM): -1.94 ± 0.25%; LDH release cytotoxicity (3.27296 µM): -1.92 ± 0.61%; LDH release cytotoxicity (10.35 µM): -0.779 ± 0.81%; LDH release cytotoxicity (32.729574 µM): 0.264 ± 0.71%; LDH release cytotoxicity (103.5 µM): -1.31 ± 1.1% |
| CCN(CC)CCO [N,N-Diethylethanolamine] | -0.085 ± 0.14 | -0.79 ± 0.26 | -0.301 ± 0.27 | -0.496 ± 0.54 | -0.856 ± 0.15 | -0.12 ± 0.4 | 0.244 ± 0.28 | 1.74 ± 0.11 |  |
| CCCCCCCCCCCCCCCO [1-Pentadecanol] | 0.0106 ± 0.14 | -0.465 ± 0.06 | 0.131 ± 0.74 | -0.574 ± 0.11 | 0.207 ± 0.55 | 0.233 ± 0.26 | 0.338 ± 0.26 | 2.58 ± 0.24 |  |
| O=C(OCCCCCOC(=O)c1ccccc1)c1ccccc1 [Pentane-1,5-diyl dibenzoate] | -0.742 ± 0.19 | -0.929 ± 0.18 | -1.73 ± 0.77 | -1.19 ± 0.099 | -0.893 ± 0.47 | -0.935 ± 0.24 | -0.87 ± 0.083 | -0.0778 ± 0.93 |  |
| CCCCCCc1ccc(O)cc1O [4-Hexylresorcinol] | -1.87 ± 0.26 | -0.709 ± 0.041 | -0.736 ± 1.1 | -1.64 ± 0.45 | -1.6 ± 1 | -1.36 ± 0.29 | 0.152 ± 0.4 | 1.18 ± 0.84 |  |
| c1ccc2cc3ccccc3cc2c1 [Anthracene] |  | -2.92 ± 1.7 |  | -2.01 ± 1.3 | -2.51 ± 0.11 | -2.69 | -1.53 ± 1.4 | 2.42 ± 3.7 | LDH release cytotoxicity (0.031623 µM): -2.31 ± 1.3%; LDH release cytotoxicity (0.316228 µM): -3.34 ± 0.24% |
| CCCN(CCC)C(=O)SCC [EPTC] | 0.307 ± 0.45 | -0.433 ± 0.099 | -0.271 ± 0.12 | -0.35 ± 0.45 | -0.208 ± 0.25 | 0.499 ± 0.14 | 0.312 ± 0.64 | 0.622 ± 0.63 |  |
| CCCCCCCCCCCCc1ccccc1S(=O)(=O)O [Sodium dodecylbenzenesulfonate] | -1.64 ± 0.19 | -2.37 ± 0.1 | -2.11 ± 0.97 | -2.14 ± 0.36 | -1.89 ± 0.21 | -2.56 ± 1.3 | -1.08 ± 0.42 | 49.9 ± 3.5 |  |
| CN(C)C(=S)SSC(=S)N(C)C [Thiram] | -1.63 ± 0.73 | -2.1 ± 1.1 | -2.29 ± 0.55 | -1.46 ± 0.3 | -2.28 ± 0.41 | -1.86 ± 0.66 | -1.13 ± 0.084 | 2.802 ± 0.022 |  |
| CCc1cccc(CC)c1N(COC)C(=O)CCl [Alachlor] |  | -1.83 ± 1.3 |  | -2.4 ± 0.71 | -2.62 ± 0.18 | -2.23 ± 0.35 | -2.51 ± 0.88 | -0.425 ± 0.47 | LDH release cytotoxicity (0.031623 µM): -1.16 ± 0.26%; LDH release cytotoxicity (0.316228 µM): -2.33 ± 2.1% |
| CC(=O)C1CCC2C3CCC4=CC(=O)CCC4(C)C3CCC12C (stereo not given) [Progesterone] | 0.112 ± 0.97 | -0.0962 ± 0.055 | -0.597 ± 1.8 | -0.509 ± 0.91 | -1.13 ± 0.52 | -2 ± 0.72 | 12.6 ± 0.78 | 55.9 ± 1.6 |  |
| COc1cnc(OC)n2nc(NS(=O)(=O)c3c(OCC(F)F)cccc3C(F)(F)F)nc12 [Penoxsulam] | -0.317 ± 0.26 | -1.82 ± 0.45 | -1.21 ± 0.65 | -1.71 ± 0.57 | -0.488 ± 0.1 | -0.309 ± 0.71 | -1.02 ± 0.03 | 0.729 ± 0.1 |  |
| CCN(CC)CCOc1ccc(C(=C(Cl)c2ccccc2)c2ccccc2)cc1 [Clomiphene citrate (1:1)] |  |  |  |  |  |  |  |  | LDH release cytotoxicity (0.0265631 µM): -2.02 ± 0.85%; LDH release cytotoxicity (0.084 µM): -1.22 ± 1.1%; LDH release cytotoxicity (0.265631 µM): -0.767 ± 0.54%; LDH release cytotoxicity (0.84 µM): -1.18 ± 0.029%; LDH release cytotoxicity (2.6563132 µM): -0.65 ± 0.39%; LDH release cytotoxicity (8.4 µM): -1.17 ± 0.63%; LDH release cytotoxicity (26.563132 µM): 9.07 ± 8.3%; LDH release cytotoxicity (84 µM): 95.2 ± 1.5% |
